pIC50, pKi: −log10 of the molar value. Blank lines part the entries; values can stand above or below the molecule they belong to.
How the values were obtained:
[1] = Metabolic stability in dog liver microsomes assessed as half life; type: ADME, Canis lupus familiaris, Microsome
[2] = Tmax in rat at 5 mg/kg, po; type: ADME, organism-based; set-up: dose 5 mg/kg, route oral; conditions: in vivo
[3] = Metabolic stability in human liver microsomes assessed as half life; type: ADME, Microsome
[4] = molecular target: Histamine H3 receptor (Rattus norvegicus, UniProt Q9QYN8); experiment: Displacement of [3H]-NAMH from rat histamine H3 receptor
[5] = Ratio of drug level in brain to plasma in rat at 10 mg/kg, ip; type: ADME, organism-based; set-up: dose 10 mg/kg, route intraperitoneal; conditions: brain and plasma, read-out: BPR
[6] = Volume of distribution in rat at 1 mg/kg, iv; type: ADME, organism-based; set-up: dose 1 mg/kg, route intravenous; conditions: in vivo
[7] = tested on: Rattus norvegicus; experiment: AUC (0 to 6 hrs) in rat at 5 mg/kg, po; type: ADME, organism-based, Plasma; set-up: time < 6 hr, dose 5 mg/kg, route oral; conditions: in vivo
[8] = Oral bioavailability in rat at 5 mg/kg; type: ADME, organism-based; conditions: in vivo
[9] = Drug uptake in rat brain at 10 mg/kg, ip after 1 hr; type: ADME, organism-based; set-up: dose 10 mg/kg, route intraperitoneal; conditions: read-out: Drug uptake
[10] = Metabolic stability in mouse liver microsomes assessed as half life; type: ADME, Microsome
[11] = molecular target: Histamine H3 receptor (Homo sapiens, UniProt Q9Y5N1); experiment: Displacement of [3H]-NAMH from human histamine H3 receptor
[12] = Cmax in rat at 5 mg/kg, po; type: ADME, organism-based; set-up: dose 5 mg/kg, route oral; conditions: in vivo
[13] = Metabolic stability in rat liver microsomes assessed as half life; type: ADME, Microsome
[14] = molecular target: T1, Cytochrome P450 1A2 (Homo sapiens, UniProt P05177); experiment: Inhibition of CYP1A2; type: ADME
T1 sequence (P05177 whole entry): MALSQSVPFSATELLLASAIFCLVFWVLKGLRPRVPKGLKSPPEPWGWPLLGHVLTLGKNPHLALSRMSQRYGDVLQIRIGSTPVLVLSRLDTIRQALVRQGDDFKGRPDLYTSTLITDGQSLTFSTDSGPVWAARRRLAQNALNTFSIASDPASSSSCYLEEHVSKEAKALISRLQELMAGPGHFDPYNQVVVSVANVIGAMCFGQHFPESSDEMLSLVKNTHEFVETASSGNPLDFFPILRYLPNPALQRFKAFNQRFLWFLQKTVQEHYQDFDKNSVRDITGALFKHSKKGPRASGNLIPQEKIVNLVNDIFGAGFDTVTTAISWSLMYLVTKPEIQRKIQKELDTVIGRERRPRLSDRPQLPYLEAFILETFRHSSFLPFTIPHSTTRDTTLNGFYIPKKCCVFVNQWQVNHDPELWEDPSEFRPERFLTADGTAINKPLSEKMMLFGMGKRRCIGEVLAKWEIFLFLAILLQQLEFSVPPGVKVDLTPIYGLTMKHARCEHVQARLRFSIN

[15] = Clearance in rat at 1 mg/kg, iv; type: ADME, organism-based; set-up: dose 1 mg/kg, route intravenous; conditions: in vivo
[16] = molecular target: Cytochrome P450 2C19 (Homo sapiens, UniProt P33261); experiment: Inhibition of CYP2C19; type: ADME
[17] = molecular target: Cytochrome P450 3A4 (Homo sapiens, UniProt P08684); experiment: Inhibition of CYP3A4; type: ADME
[18] = molecular target: Cytochrome P450 2C9 (Homo sapiens, UniProt P11712); experiment: Inhibition of CYP2C9; type: ADME
[19] = molecular target: Cytochrome P450 2D6 (Homo sapiens, UniProt P10635); experiment: Inhibition of CYP2D6; type: ADME
[20] = Half life in rat at 1 mg/kg, iv; type: ADME, organism-based; set-up: dose 1 mg/kg, route intravenous; conditions: in vivo
[21] = tested on: Rattus norvegicus; experiment: AUC (0 to 6 hrs) in po dosed rat; type: ADME, organism-based, Plasma; set-up: time < 6 hr, route oral; conditions: in vivo
[22] = Drug uptake in ip dosed rat brain after 1 hr; type: ADME, organism-based; conditions: read-out: Drug uptake
[23] = Cmax in po dosed rat; type: ADME, organism-based; set-up: route oral; conditions: in vivo
[24] = Oral bioavailability in rat; type: ADME, organism-based; conditions: in vivo
[25] = Ratio of drug level in brain to plasma in ip dosed rat; type: ADME, organism-based; conditions: brain and plasma, read-out: BPR

Histamine H3 receptor (Rattus norvegicus, UniProt Q9QYN8), sequence (Q9QYN8 whole entry): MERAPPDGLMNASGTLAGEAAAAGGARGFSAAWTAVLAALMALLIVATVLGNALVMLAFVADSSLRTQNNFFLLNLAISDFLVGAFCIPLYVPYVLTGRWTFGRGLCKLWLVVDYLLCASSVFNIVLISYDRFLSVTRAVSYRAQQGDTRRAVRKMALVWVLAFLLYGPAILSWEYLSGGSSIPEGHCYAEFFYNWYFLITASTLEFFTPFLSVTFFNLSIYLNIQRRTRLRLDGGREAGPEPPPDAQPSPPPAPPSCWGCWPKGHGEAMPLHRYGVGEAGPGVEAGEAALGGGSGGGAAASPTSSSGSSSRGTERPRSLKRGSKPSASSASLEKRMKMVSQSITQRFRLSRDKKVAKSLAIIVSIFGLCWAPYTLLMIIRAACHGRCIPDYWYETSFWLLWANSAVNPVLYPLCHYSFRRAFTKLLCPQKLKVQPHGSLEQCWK
Histamine H3 receptor (Homo sapiens, UniProt Q9Y5N1), sequence (Q9Y5N1 whole entry): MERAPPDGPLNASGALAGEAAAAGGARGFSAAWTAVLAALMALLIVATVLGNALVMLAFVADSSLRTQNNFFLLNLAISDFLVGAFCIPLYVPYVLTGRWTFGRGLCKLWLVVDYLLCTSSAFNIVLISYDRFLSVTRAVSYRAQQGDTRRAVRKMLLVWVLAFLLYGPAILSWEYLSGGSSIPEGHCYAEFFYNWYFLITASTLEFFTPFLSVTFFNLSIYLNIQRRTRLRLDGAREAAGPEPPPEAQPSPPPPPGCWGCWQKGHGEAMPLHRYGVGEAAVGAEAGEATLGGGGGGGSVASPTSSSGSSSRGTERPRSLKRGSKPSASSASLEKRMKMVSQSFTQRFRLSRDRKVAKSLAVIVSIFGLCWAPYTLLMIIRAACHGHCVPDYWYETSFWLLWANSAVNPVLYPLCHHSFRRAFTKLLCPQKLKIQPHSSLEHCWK
Cytochrome P450 2C19, sequence (P33261 whole entry): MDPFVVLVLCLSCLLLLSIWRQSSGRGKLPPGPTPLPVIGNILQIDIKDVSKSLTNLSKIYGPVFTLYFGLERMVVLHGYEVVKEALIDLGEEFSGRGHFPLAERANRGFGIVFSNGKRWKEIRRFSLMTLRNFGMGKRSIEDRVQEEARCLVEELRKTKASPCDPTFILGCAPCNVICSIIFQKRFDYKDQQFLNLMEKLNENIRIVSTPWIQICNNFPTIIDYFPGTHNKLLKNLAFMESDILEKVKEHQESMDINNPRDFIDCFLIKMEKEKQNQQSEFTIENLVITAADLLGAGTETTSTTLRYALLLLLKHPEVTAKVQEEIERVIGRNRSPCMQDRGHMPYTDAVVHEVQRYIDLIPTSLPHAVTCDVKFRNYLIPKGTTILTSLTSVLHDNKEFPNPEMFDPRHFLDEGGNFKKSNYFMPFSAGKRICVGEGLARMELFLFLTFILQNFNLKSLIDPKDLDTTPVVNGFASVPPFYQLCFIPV
Cytochrome P450 3A4, sequence (P08684 whole entry): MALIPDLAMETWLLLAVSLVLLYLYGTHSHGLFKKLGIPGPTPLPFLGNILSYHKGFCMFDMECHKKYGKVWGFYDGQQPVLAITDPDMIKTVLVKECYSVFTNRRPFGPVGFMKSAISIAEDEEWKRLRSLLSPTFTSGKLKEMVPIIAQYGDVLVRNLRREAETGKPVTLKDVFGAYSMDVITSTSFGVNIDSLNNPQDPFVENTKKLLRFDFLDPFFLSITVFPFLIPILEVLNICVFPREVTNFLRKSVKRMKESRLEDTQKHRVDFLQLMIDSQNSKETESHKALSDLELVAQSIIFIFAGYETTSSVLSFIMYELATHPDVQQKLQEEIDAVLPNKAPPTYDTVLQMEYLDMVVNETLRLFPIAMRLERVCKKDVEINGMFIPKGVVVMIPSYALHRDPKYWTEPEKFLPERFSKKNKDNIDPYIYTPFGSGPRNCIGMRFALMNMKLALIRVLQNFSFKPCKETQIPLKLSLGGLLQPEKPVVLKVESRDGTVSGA
Cytochrome P450 2C9, sequence (P11712 whole entry): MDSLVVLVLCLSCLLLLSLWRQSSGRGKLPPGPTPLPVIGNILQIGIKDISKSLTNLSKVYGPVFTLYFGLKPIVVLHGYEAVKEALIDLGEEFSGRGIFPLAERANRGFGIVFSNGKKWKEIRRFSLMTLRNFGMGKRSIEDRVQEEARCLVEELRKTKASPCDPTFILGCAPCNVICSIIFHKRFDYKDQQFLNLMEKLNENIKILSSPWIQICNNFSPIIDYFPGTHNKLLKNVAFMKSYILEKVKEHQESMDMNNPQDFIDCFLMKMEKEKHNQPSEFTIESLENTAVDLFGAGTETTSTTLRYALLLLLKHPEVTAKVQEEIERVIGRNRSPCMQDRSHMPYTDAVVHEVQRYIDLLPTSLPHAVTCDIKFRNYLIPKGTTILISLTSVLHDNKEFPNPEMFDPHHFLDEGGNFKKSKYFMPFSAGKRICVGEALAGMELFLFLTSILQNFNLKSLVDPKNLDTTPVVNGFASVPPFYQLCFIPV
Cytochrome P450 2D6, sequence (P10635 whole entry): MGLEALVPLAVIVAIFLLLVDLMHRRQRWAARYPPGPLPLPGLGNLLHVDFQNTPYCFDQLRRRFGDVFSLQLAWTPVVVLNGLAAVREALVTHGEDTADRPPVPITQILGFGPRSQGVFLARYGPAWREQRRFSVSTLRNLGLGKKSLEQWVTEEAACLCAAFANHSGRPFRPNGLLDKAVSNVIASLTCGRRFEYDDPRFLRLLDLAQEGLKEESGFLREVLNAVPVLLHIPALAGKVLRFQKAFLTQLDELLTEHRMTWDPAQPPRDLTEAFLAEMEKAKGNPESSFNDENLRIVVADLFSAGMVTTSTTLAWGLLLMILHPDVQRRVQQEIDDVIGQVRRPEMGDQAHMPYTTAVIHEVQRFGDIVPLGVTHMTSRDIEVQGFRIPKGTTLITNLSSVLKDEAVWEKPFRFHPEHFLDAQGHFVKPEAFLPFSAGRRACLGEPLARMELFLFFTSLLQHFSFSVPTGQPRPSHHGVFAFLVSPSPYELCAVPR

SMILES: Cn1nc(-c2ccc(OC3CCN(C4CCC4)CC3)cc2)ccc1=O
- pKi [4]: 8.52
- half-life [10]: 35 min
- pKi [11]: 8.52

SMILES: Cn1nc(-c2ccc(OC3CCN(C4CCCC4)CC3)cc2)ccc1=O
- pKi [4]: 8.22
- pKi [11]: 8.52

SMILES: Cn1nc(-c2ccc(N3CCN(C4CCCC4)CC3)cc2)ccc1=O
- pKi [4]: 6.59
- pKi [11]: 7.03

SMILES: Cn1nc(-c2ccc(N3CCN4CCC[C@H]4C3)cc2)ccc1=O
- pKi [4]: < 6.00
- pKi [11]: 6.51

SMILES: Cn1nc(-c2ccc(C(=O)N3CCN(C4CCCC4)CC3)cc2)ccc1=O
- pKi [4]: 6.73
- pKi [11]: 6.87

SMILES: CC(C)N1CCN(C(=O)c2ccc(-c3ccc(=O)n(C)n3)cc2)CC1
- pKi [4]: 6.73
- pKi [11]: 6.78

SMILES: O=C(c1ccc(-c2ccc(=O)n(-c3ccc(F)cc3)n2)cc1)N1CCC[C@H]1CN1CCCC1
- half-life [1]: > 40 min
- half-life [3]: > 40 min
- pKi [4]: 7.04
- Kp [5]: 0.7
- Vd [6]: 1.1 L/kg
- clearance [15]: 12 mL/min/kg
- AUC [7]: 1020 ng·h/mL
- bioavailability [8]: 13%
- concentration at 1 h [9]: 529 ng/g
- half-life [10]: > 40 min
- pKi [11]: 7.80
- half-life [20]: 60 min
- Cmax [12]: 180 ng/mL
- half-life [13]: > 40 min

SMILES: O=C(c1ccc(-c2ccc(=O)[nH]n2)cc1)N1CCC[C@H]1CN1CCCC1
- pKi [4]: 7.34
- pKi [11]: 7.77

The remaining lines, values ahead:

- half-life [1]: > 40 min
- Tmax [2]: 60 min
- half-life [3]: > 40 min
- pKi [4]: 8.22
- Kp [5]: 3.9
- Vd [6]: 6.5 L/kg
- AUC [7]: 538 ng·h/mL
- bioavailability [8]: 28%
- concentration at 1 h [9]: 3440 ng/g
- half-life [10]: > 40 min
- pKi [11]: 9.00
- Cmax [12]: 123 ng/mL
- half-life [13]: > 40 min
SMILES: C[C@@H]1CCCN1CCCOc1ccc(-c2ccc(=O)n(C)n2)cc1

- pKi [4]: < 6.00
- pKi [11]: < 6.00
SMILES: Cn1nc(-c2ccc(C(=O)N3CCN4CCC[C@H]4C3)cc2)ccc1=O

- pKi [4]: < 6.00
- pKi [11]: < 6.30
SMILES: CN1CCCN(c2ccc(-c3ccc(=O)n(C)n3)cc2)CC1

- pKi [4]: 6.38
- pKi [11]: 6.96
SMILES: CC(C)N1CCN(c2ccc(-c3ccc(=O)n(C)n3)cc2)CC1

- half-life [1]: > 40 min
- pIC50 [14]: < 4.52
- half-life [3]: > 40 min
- pKi [4]: 7.08
- Kp [5]: 0.37
- Vd [6]: 2.5 L/kg
- clearance [15]: 18 mL/min/kg
- AUC [7]: 2180 ng·h/mL
- pIC50 [16]: < 4.52
- pIC50 [17]: < 4.52
- pIC50 [18]: < 4.52
- bioavailability [8]: 45%
- concentration at 1 h [9]: 454 ng/g
- pIC50 [19]: < 4.52
- half-life [10]: > 40 min
- pKi [11]: 8.00
- half-life [20]: 96 min
- Cmax [12]: 412 ng/mL
- half-life [13]: > 40 min
SMILES: Cn1nc(-c2ccc(C(=O)N3CCC[C@H]3CN3CCCC3)cc2)ccc1=O

- AUC [21]: 2600 ng·h/mL
- concentration at 1 h [22]: 1660 ng/g
- Cmax [23]: 435 ng/mL
- bioavailability [24]: 51%
- Kp [25]: 1.4
SMILES: CNC(=O)c1ccc(Oc2ccc3c(c2)CCN(C2CCC2)CC3)nc1 [GSK189254]
